{"source": "paper PMC8772930", "about": "“Experimental and Molecular Docking Studies of Cyclic Diphenyl Phosphonates as DNA Gyrase Inhibitors for Fluoroquinolone-Resistant Pathogens” (Antibiotics, 2022)", "target": "T1, DNA gyrase (Escherichia coli, UniProt P0AES6)", "T1 construct": "gene gyrB; with DNA gyrase subunit A (GyrA)", "assay": "DNA supercoiling inhibition assay (Inspiralis E. coli gyrase microplate kit, agarose gel)", "format": "biochemical", "data": [{"compound": "NN1C=CCCC1P(=O)(Oc1ccccc1)Oc1ccccc1", "note": "(stereo not shown) [2a, cyclic diphenylphosphonate 2a]", "values": [{"measurement": "IC50", "result": 12, "unit": "µM"}]}]}
